Patent US10246463B2, “Hypoxia-inducible factor 1 (HIF-1) inhibitors” (The United States of America, as represented by the …, priority 2015, dated 2019)
≈ marks a conversion by molar mass, not a printed value. Where “and” joins values, the source holds several entries; their conditions need not be identical. Identical values can stand only once. Like-named read-outs stand apart in the source and are kept apart here. Blank lines part the entries; values can stand above or below the compound they belong to.

Experiments:
[1] = target: T1, p300 (CH1) / HIF-1α (C-TAD) interaction (Homo sapiens, UniProt Q09472+Q16665); test: p300 CH1 / HIF-1α C-TAD binding assay (DELFIA, europium anti-GST); settings: for IC50: dose-response format of the screening assay
T1 construct: GST-p300-CH1 (aa 323-423); synthetic biotinylated HIF-1αC-TAD (aa 786-826; Peptide Protein Research Ltd., Fareham, UK)
Method: Binding of soluble CH1 to the immobilized C-TAD was measured by the fluorescence of a europium-tagged anti-GST antibody.
Bound GST-CH1 was detected using a europium-labeled antibody to GST (PerkinElmer Life Sciences). […] Plates were washed four times with TBST (50 mM Tris, 150 mM NaCl, 0.05% Tween 20, pH 8.0) buffer. […] After 2 h, plates were washed four times in TBST. DELFIA enhancement solution (PerkinElmer Life Sciences) was added and plates were placed on a rocker for 30 min, before reading with a Victor3 plate reader (PerkinElmer Life Sciences) or a Pherastar Plate Reader (BMG Labtech), using the europium setting under time-resolved fluorescence. Values were corrected for background and expressed as a percentage of controls (DMSO) to provide the percentage of CH1 binding.

[2] = tested on: 456 protein kinase enzymes; test: commercial panel of 456 protein kinase enzymes (DiscoverRx); format: binding
Source text: (§1) In an effort to evaluate a broader range of potential activities of interest, compound 1 was screened against a commercial panel of 456 protein kinase enzymes and 32 bromodomain proteins (DiscoverRx, San Diego, Calif.), and it had no activity against any of these targets.

32 bromodomain proteins = test: commercial panel of 32 bromodomain proteins (DiscoverRx); format: binding
Source text: as §1

NCI-60 cell line = NCI-60 cell line anticancer screen; format: cell-based; settings: standard initial concentration of 40 μM
[3] = tested on: HIF-1α activation in HCT116 cells; test: HRE luciferase reporter of HIF-1α activation in HCT116 cells under anoxic conditions; format: cell-based; settings: FIG. 7
Method: Activation was monitored via a hypoxia response element (HRE) luciferase signal. When HIF-1α is activated, it results in an increased HRE luciferase signal. […] Data were analyzed using an ordinary one-way ANOVA with Dunnett's multiple comparisons test (reference group: DMSO.H). * P≤0.05, ** P≤0.01, *** P≤0.0001.

HCT116 cells = test: CCK-8 cytotoxicity in HCT116 cells under hypoxic conditions; format: cell-based; settings: 18 h treatment, hypoxic conditions (0.5% O2), FIG. 8
Source text: Results are presented as the average cell viability number (% hypoxic control) of triplicate experiments ±S.E.M. (n=3-4).

[4] = tested on: P. falciparum D6 (chloroquine sensitive); test: Antimalarial activity, plasmodial LDH assay, D6 strain; format: cell-based; settings: for IC50: Plasmodium falciparum, read-out: IC50 against D6
Method: (§2) The antimalarial activity was determined against chloroquine sensitive (D6) and chloroquine resistant (W2) strains of P. falciparum by measuring plasmodial LDH (lactate dehydrogenase) activity according to the procedure of Makler and Hinrichs (Am. J. Trop. Med. Hyg. 1993, 48:205). A suspension of red blood cells infected with D6 or W2 strain of P. falciparum (200 μL, with 2% parasitemia and 2% hematocrit in RPMI 1640 medium supplemented with 10% human serum and 60 μg/mL Amikacin) was added to the wells of a 96-well plate containing 10 μL of serially diluted samples (plant extracts, column fractions or pure compounds). The plate was incubated at 37° C., for 72 h in a modular incubation chamber with 90% N2, 5% O2, and 5% CO2. Parasitic LDH activity was determined by mixing 20 μL of the incubation mixture with 100 μL of the Malstat reagent and incubating at room temperature for 30 min Twenty microliters of a 1:1 mixture of NBT/PES (nitro blue tetrazolium/phenazine ethosulfate) (Sigma, St. Louis, Mo.) was then added and the plate was further incubated in the dark for 1 h. The reaction was stopped by adding 100 μL of a 5% acetic acid solution and the absorbance was read at 650 nm. Artemisinin and chloroquine were included as the drug controls. IC50 values were computed from the dose response curves of growth inhibition.

[5] = tested on: P. falciparum W2 (chloroquine resistant); test: Antimalarial activity, plasmodial LDH assay, W2 strain; format: cell-based; settings: for IC50: Plasmodium falciparum, read-out: IC50 against W2
Method: as §2

[6] = pKa determination by UV-Vis analysis at varied pH; format: physicochemical; settings: aqueous buffers at varied pH, 0.1% DMSO, read-out: pKa of the titratable proton
Method: The cuvettes were allowed to equilibrate for 1 h before a UV-Vis curve was obtained. The pKa for 1 was determined by fitting Δ abs at 394 and 440 nm to a polynomial curve, as described previously (Yapici et al., J. Am. Chem. Soc. 2015, 137:1073-1080).

Stability in NMR solvent = format: physicochemical
[7] = read-out: IC50, blocking binding of soluble CH1 to immobilized C-TAD

T1 sequence (Q09472 323-423): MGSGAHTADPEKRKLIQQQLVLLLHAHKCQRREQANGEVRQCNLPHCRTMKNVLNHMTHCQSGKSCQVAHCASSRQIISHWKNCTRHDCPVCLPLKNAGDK
T1 sequence (Q16665 786-826): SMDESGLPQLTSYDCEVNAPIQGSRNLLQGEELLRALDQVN

Compound: OC1(c2ccccc2)N=C2N=CC=C3c4ccccc4N=C1N32 (stereo not drawn) [EA-1]
inhibition of CH1 (p300)/C-TAD (HIF-1α) interaction ([1]; even at high dose): no inhibition

Compound: O=C(O)c1ccc(C2(O)N=C3N=CC=C4c5ccccc5N=C2N43)cc1 (stereo not drawn) [EA-2]
IC50 ([1]; read-out: IC50, CH1 (p300)/C-TAD (HIF-1α) interaction (converted)): ~290 µM

Compound: COc1ccc(C2(O)N=C3N=CC=C4c5ccccc5N=C2N43)cc1 (stereo not drawn) [Eudistidine A, eudistidine A]
inhibition of HIF-1α binding to p300, comparison of salt forms and natural/synthetic material ([1]; FIGS. 5A-5E, 6A-6C, listed as natural eudistidine A, free base): similarly inhibit
IC50 [1, 7]: ~75 µM and 75 µM
activity against 456 protein kinase enzymes [2]: no activity
activity against 32 bromodomain proteins (32 bromodomain proteins): no activity
cytotoxic activity in NCI-60 screen (NCI-60 cell line): no significant cytotoxic activity
blocking of HIF-1α activation (HRE luciferase signal) [3]: block HIF-1α activation
CCK-8 cytotoxicity/growth inhibitory activity (HCT116 cells): only modest cytotoxicity/growth inhibitory activity
% growth of D6 strain of P. falciparum ([4]; 528.89 ng/mL): 72%
% growth of D6 strain of P. falciparum ([4]; 1586.67 ng/mL): 6%
% growth of D6 strain of P. falciparum ([4]; 4760 ng/mL): 2%
IC50 ([4]; D6, growth inhibition, 72 h): 0.77 µg/mL (≈ 2.33 µM)
% growth of W2 strain of P. falciparum ([5]; 528.89 ng/mL): 55%
% growth of W2 strain of P. falciparum ([5]; 1586.67 ng/mL): 1%
% growth of W2 strain of P. falciparum ([5]; 4760 ng/mL): 1%
IC50 ([5]; W2, growth inhibition, 72 h): 0.58 µg/mL (≈ 1.76 µM)
pKa [6]: 5.1 ± 0.1

Compound: CCN(CC)CCCC(C)Nc1ccnc2cc(Cl)ccc12 (stereo not drawn) [chloroquine, reference compound]
IC50 ([4]; D6, 72 h): 0.0154 µg/mL (≈ 0.0481 µM)
IC50 ([5]; W2, 72 h): 0.161 µg/mL (≈ 0.503 µM)

Continued, in another order:

inhibition of CH1 (p300)/C-TAD (HIF-1α) interaction ([1]; at a high dose of 250 μM): no inhibition
Compound: O=c1nc2nccc3c4ccccc4nc1N23 [Eudistidine B, eudistidine B]

IC50 [1, 7]: ~75 µM
IC50 ([4]; D6, growth inhibition, 72 h): 1.7 µg/mL (≈ 3.49 µM)
IC50 ([5]; W2, growth inhibition, 72 h): 0.9 µg/mL (≈ 1.85 µM)
stability in DMSO-d6 (Stability in NMR solvent): somewhat unstable
Compound: COc1ccc(C2(c3nc(N)[nH]c3-c3ccc(O)cc3)N=C3N=CC=C4c5ccccc5N=C2N43)cc1 (stereo not drawn) [Eudistidine C, eudistidine C]
% growth of D6 strain of P. falciparum ([4]; 528.89 ng/mL): 91%
% growth of D6 strain of P. falciparum ([4]; 1586.67 ng/mL): 56%
% growth of D6 strain of P. falciparum ([4]; 4760 ng/mL): 9%
% growth of W2 strain of P. falciparum ([5]; 528.89 ng/mL): 75%
% growth of W2 strain of P. falciparum ([5]; 1586.67 ng/mL): 22%
% growth of W2 strain of P. falciparum ([5]; 4760 ng/mL): 6%

IC50 ([4]; D6, growth inhibition, 72 h): 0.0072 µg/mL (≈ 0.0255 µM)
IC50 ([5]; W2, growth inhibition, 72 h): 0.0041 µg/mL (≈ 0.0145 µM)
Compound: C[C@@H]1CC[C@H]2[C@@H](C)C(=O)O[C@@H]3O[C@@]4(C)CC[C@@H]1[C@]32OO4 [artemisinin, reference compound]
